Among the data in PubChem BioAssay (NCI) are TGI and GI50 values, retold here.

Structures are written as SMILES. Where “and” joins values, the source holds several entries; their conditions need not be identical. Equal entries are not always repeated.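 Each compound was tested at five concentrations against cells in 96-well plates for 48 hours. GI50 is the concentration that inhibits growth by half. Definition used: TGI = concentration required for complete inhibition of growth.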 Some results are limits rather than exact numbers.

Assay in all cases: NCI anticancer screen, dose series, 48 h
Assay [1] relates to OVCAR-5 ovarian.
For assay [2], the system named is HCT-15 colon.
In assay [3] the test system is OVCAR-4 ovarian.
Assay [4] relates to SK-MEL-2 melanoma.
Assay [5] concerns HOP-62 NSCLC.
Assay [6] relates to IGROV1 ovarian.
For assay [7], the system named is MOLT-4 leukemia.
For assay [8], the system named is NCI-H460 lung.
In assay [9] the test system is UACC-257 melanoma.
The test system of assay [10] is NCI-H226 lung.

As to `O=C(CC(=O)N1N=C(n2ccc3ccccc32)CC1c1ccccc1)Nc1cccc(Cl)c1` (stereo not drawn), the TGI in assay [1], in assay [2], in [3], in assay [4], in assay [5] and in assay [6] was greater than 100 µM each time. Also, the TGI in [7], in assay [8] and in assay [9] was greater than 100 µM in each case.

On to `CC(=O)OC1C=CC2CCN3C(=O)c4cc5c(cc4[C@H]1C23)OCO5` (stereo partly drawn), for which the TGI in [2], in assay [10], in assay [5], in [6], in assay [7] and in assay [8] was greater than 100 µM throughout. This compound also registered a TGI in [9] greater than 100 µM.

In the case of `Cc1ccc2nc3c(Cl)cc(=O)cc-3sc2c1`, the TGI amounted to 32 µM in assay [2]; 30.7 µM in assay [3]; 79.1 µM in assay [10]; 38.1 µM in assay [6]; 41.5 µM in assay [7]; 83.5 µM in assay [8]. In assay [9], this compound registered a TGI of 46.6 µM.

With `CCOC(=O)C1=C(Nc2ccccc2)OC/C1=N\NC(=O)Cc1ccccc1`, the TGI in [1], in assay [3], in [10], in assay [4], in assay [5] and in [6] was greater than 50 µM in each case. Besides, the TGI in [7], in [8] and in assay [9] was greater than 50 µM in each case.

Take `Cn1cc(-c2csc(-c3c[nH]c4ncccc34)n2)c2cc(Br)cnc21`: the GI50 in assay [1] is greater than 100 µM; in assay [2], 13.7 µM; in assay [10] it was 1.97 µM; in [4], 19.8 µM; in [5], 2.39 µM; in assay [6], 2.21 µM. Besides, the GI50 in assay [7] was greater than 100 µM; in [8] it was 2.98 µM. Also, the TGI was greater than 100 µM in assay [1]; greater than 100 µM in [2]; greater than 100 µM in assay [10]; 66.7 µM in assay [4]; 11.6 µM in assay [5]; greater than 100 µM in assay [6]. Besides, the TGI in [7] and in assay [8] was greater than 100 µM in each case.

Take `COc1cc2c(cc1OCCCCNC(=O)c1cc3ccccc3[nH]1)N=CC1CCCN1C2=O` (stereo not drawn): the GI50 is 22.9 µM in assay [1]; 16.4 µM in assay [2]; 28.2 µM in assay [3]; 30.7 µM in assay [10]; 31.5 µM in assay [5]; 18.1 µM in [6]. Moreover, the GI50 was 8.72 µM in [7], 11.9 µM in assay [8] and 17.4 µM in assay [9]. For the same compound, the TGI in assay [1] is greater than 100 µM; in [2] it was 58.2 µM; in assay [3], 94.4 µM; in [10] it was greater than 100 µM; in [5], greater than 100 µM; in assay [6], greater than 100 µM. The TGI is greater than 100 µM in assay [7], 65.1 µM in assay [8] and 43.8 µM in [9].

`C=C1C(=O)OC2CCCCC3OC3C12` (stereo not drawn): the TGI in assay [1] stood at 32.3 µM; in assay [2], 19.9 µM; in assay [3], 28.7 µM; in assay [4], 27.5 µM; in assay [5], 41.3 µM; in assay [6] it was 33.4 µM. The TGI in assay [7] was 33.2 µM; in assay [8], 28.3 µM; in assay [9], 26.5 µM.

Turning to `c1cncc(CNc2ccccc2-c2nnc(Nc3ccc4c(c3)OCO4)o2)c1`, the GI50 in assay [1] is 0.347 µM; in [2] it was 0.0578 µM; in assay [3], 1 µM; in assay [4], 0.052 µM; in [5] it was 0.085 µM; in [6], 0.171 µM. Moreover, the GI50 in [7] is 0.194 µM; in assay [8], 0.0435 µM; in assay [9], 0.432 µM. The TGI is greater than 100 µM in assay [1]; greater than 100 µM in assay [2]; greater than 100 µM in [3]; 91.9 µM in assay [4]; greater than 81 µM in assay [5]; greater than 100 µM in [6]. In addition, the TGI is greater than 100 µM in assay [7], greater than 100 µM in assay [8] and 60.4 µM in [9].

Regarding `O=C(c1cc2ccccc2[nH]1)C(O)(c1cc2ccccc2[nH]1)c1cc2ccccc2[nH]1`, the TGI in assay [1], in [2], in [10], in assay [4], in assay [5] and in assay [6] was greater than 246 µM each time. The TGI in assay [7], in [8] and in [9] was greater than 246 µM in each case.

As to `Cc1ccc(SSCCCS(=O)O)cc1`, the TGI was greater than 100 µM in [1]; greater than 100 µM in [2]; greater than 100 µM in [3]; greater than 100 µM in assay [4]; 78.4 µM in assay [5]; 27.4 µM in [6]. Also, the values for the TGI in assay [7], in assay [8] and in assay [9] were 50.6 µM, greater than 100 µM and greater than 100 µM, respectively.

Regarding `N/C(=N\O)c1ncc(-c2ccc(C(F)(F)F)cc2)c(NC2CCCCCC2)n1`, the GI50 was 4.51 µM in assay [1]; 2.97 µM and 0.955 µM in [2]; 2.72 µM in [3]; 4.24 µM in assay [10]; 7.5 µM and 6.53 µM in assay [5]; 6.72 µM and 2.26 µM in assay [6]. The GI50 in assay [7] is 5.44 µM and 1.9 µM; in assay [8], 6.6 µM and 2.6 µM; in [9] it was 3.23 µM. Besides, the TGI in assay [1] was 19.3 µM; in assay [2] it was 15.1 µM; in assay [3] it was 15 µM; in assay [10], 26.8 µM; in assay [5] it was 23.2 µM; in assay [6], 10.7 µM. For the same compound, the results for the TGI in assay [7], in [8] and in assay [9] were 5.78 µM, 9.34 µM and 13.2 µM, respectively.

With `NC(=S)N/N=C(/CC(=O)c1ccc([N+](=O)[O-])cc1)C(=O)Nc1ncc([N+](=O)[O-])s1`, the TGI in assay [1], in assay [3], in [10], in assay [4], in [5] and in assay [6] was greater than 100 µM each time. The TGI in assay [7], in assay [8] and in assay [9] was greater than 100 µM in each case.
